Where a SMILES comes first, the peptide text is derived from it. Bridges are numbered along the chain shown (N, C = ends).
Key:
[1] = test system: thrombi formation in dog coronary arteries; test: Folts model of thrombosis, cyclic flow reductions (CFRs) in open chest dog coronary artery; type: in vivo
Protocol: A. Initiation of cyclic flow reductions (CFRs) in open chest dog. An occluder placed on the left anterior descending (LAD) coronary artery of a 20 kg dog, as previously described was performed.

[2] = biological target: T1, GP IIb-IIIa (Homo sapiens, UniProt P05106+P08514); test: plate assay: binding of labeled ligand (fibrinogen, vWF) to immobilized purified GP IIb-IIIa; conditions: plate assays, in words; FIGS. 2A-2C, 30A-30E
T1 construct: Purified platelet GP IIb-IIIa receptor was prepared as described by Fitzgerald, L. A., et al; from tissue; host or cells: platelets
T1 sequence (P08514 32-887 limits assumed): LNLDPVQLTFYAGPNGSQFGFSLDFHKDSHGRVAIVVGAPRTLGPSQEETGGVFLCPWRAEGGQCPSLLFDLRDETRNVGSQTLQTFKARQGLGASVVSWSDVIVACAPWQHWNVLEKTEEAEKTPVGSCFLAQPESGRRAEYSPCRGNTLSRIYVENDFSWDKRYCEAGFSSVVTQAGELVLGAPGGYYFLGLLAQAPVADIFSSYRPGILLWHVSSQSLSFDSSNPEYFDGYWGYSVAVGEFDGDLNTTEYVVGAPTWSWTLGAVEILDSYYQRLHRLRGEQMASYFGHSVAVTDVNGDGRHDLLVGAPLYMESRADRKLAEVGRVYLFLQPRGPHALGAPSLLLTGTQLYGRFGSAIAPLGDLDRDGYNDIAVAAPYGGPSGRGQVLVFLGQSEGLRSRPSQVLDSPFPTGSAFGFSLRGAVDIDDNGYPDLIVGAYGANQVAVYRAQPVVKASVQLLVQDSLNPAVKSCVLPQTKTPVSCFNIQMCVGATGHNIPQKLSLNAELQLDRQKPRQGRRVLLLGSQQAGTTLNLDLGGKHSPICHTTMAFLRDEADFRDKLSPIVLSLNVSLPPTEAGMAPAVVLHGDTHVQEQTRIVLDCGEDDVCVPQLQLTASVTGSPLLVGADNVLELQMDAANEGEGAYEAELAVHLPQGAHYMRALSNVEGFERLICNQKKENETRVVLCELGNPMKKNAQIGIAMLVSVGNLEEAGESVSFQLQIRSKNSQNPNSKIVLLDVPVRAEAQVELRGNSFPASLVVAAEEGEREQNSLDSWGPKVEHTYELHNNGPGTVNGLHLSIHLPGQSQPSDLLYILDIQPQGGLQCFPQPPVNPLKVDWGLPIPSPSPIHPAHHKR
T1 sequence (P08514 891-1039 partner limits assumed): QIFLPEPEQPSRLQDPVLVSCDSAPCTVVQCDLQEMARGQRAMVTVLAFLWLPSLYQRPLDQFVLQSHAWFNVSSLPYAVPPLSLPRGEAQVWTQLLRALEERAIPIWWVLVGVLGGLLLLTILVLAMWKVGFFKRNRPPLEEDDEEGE
T1 sequence (P05106 27-788): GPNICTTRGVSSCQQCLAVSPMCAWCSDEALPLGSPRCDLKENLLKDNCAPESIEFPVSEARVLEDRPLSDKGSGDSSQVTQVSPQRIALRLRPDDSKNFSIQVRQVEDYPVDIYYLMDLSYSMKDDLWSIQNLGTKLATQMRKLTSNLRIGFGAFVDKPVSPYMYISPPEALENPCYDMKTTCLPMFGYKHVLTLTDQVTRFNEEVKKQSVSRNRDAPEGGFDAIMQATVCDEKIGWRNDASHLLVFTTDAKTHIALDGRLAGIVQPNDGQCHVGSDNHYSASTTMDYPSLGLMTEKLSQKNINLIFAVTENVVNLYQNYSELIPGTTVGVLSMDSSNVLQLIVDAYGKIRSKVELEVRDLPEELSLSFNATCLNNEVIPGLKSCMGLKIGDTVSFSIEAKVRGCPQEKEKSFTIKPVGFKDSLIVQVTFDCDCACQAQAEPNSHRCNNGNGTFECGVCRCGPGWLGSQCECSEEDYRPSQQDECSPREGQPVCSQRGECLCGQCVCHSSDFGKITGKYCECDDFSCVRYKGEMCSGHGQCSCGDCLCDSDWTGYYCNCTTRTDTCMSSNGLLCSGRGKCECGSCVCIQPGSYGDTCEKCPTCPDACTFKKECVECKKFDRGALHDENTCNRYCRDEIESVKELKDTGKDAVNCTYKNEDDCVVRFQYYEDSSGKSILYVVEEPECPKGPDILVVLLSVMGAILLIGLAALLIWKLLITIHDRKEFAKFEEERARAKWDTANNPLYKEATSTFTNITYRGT
Protocol: In the assay, GP IIb-IIIa, prepared in purified form, for example as described by Fitzgerald, L. A., et al., Anal Biochem (1985) 151:169-177, incorporated herein by reference, is coated onto a solid support such as beads, test tubes, or microtiter plates. […] Fibrinogen is typically provided at a concentration of about 5-50 nM and the test material can, if desired, be added at a series of dilutions. Typical incubations are 2-4 hr at 35° C., the time and temperature being interdependent.
After incubation, the solution containing the fibrinogen and test material is removed and the level of binding of fibrinogen measured by quantitating bound fibrinogen to GP IIb-IIIa. Any suitable means of detection may be used, but it is convenient to employ labeled fibrinogen, for example using radioactive, fluorescent or biotinylated labels. Such methods are well known and need not be elaborated here.
In this case, percent inhibition may be calculated using the amount of Fg bound in the control as representing the basis, so that [formula] Other measures of inhibition effectiveness, such as IC50, may also be used.
Purified platelet GP IIb-IIIa receptor was prepared as described by Fitzgerald, L. A., et al., Anal Biochem (1985) 151:169-177. […] After purification, the receptors were stored in 0.1% Triton X-100 at 0.1-1.0 mg/ml. […]
The labeled ligands were added to the receptor-coated wells at final concentration of 10 nM (100 ul/well) and incubated for 3 h at 30° C. in the presence or absence of the test samples. After incubation, the wells are aspirated to dryness and bound ligand is quantitated.
For ^125 I-labeled ligands, the protein is solubilized with 250 ul SDS. For biotinylated ligands, the bound protein is detected by the addition of antibiotin antibody conjugated to alkaline phosphatase followed by addition of substrate (p-nitrophenyl phosphate), and determination of the optical density of each well at 405 nm. […]

[3] = test system: M21 melanoma cells; test: attachment of 35S-methionine labelled M21 melanoma cells to vitronectrin-coated plates; type: cell-based; conditions: FIGS. 31-34
Protocol: M21 melanoma cells, which express high levels of the vitronectrin receptor, were metabolically labelled with ^35 S-methionine, and then added to 24-well tissue culture plates coated with vitronectrin. An incubation period of 1 hr at 37° C. was allowed for cell attachment, and this was followed by a wash to remove non-adherent cells. After washing, the adherent cells were solubilized, and the supernatants placed in a liquid scintillation counter. The fraction of cells remaining adherent was calculated by dividing the cpm in the solubilized supernatants by the cpm in the total number of cells added to each well. The effects of purified snake venom peptides and synthetic cyclic peptides on cell adhesion was determined by including them with the M21 cells during the incubation period.
M21 melanoma cells were labelled with ^35 S-methionine, and then added to vitronectrin-coated plates in the presence of the indicated concentrations of purified snake venom peptides. Cell attachment was measured by solubilizing the cells remaining after an incubation and wash, as described in Section C, on page 40.

[4] = biological target: T2, vitronectrin receptor (Homo sapiens, UniProt P05106+P06756); test: plate assay: binding of labeled ligand (vitronectrin, vWF) to immobilized vitronectrin receptor; conditions: FIGS. 26-28
T2 construct: Vitronectrin receptor was prepared as described by Smith, J. W., J Biol Chem (1988) 263:18726-18731; from tissue
T2 sequence (P06756 31-889 limits assumed): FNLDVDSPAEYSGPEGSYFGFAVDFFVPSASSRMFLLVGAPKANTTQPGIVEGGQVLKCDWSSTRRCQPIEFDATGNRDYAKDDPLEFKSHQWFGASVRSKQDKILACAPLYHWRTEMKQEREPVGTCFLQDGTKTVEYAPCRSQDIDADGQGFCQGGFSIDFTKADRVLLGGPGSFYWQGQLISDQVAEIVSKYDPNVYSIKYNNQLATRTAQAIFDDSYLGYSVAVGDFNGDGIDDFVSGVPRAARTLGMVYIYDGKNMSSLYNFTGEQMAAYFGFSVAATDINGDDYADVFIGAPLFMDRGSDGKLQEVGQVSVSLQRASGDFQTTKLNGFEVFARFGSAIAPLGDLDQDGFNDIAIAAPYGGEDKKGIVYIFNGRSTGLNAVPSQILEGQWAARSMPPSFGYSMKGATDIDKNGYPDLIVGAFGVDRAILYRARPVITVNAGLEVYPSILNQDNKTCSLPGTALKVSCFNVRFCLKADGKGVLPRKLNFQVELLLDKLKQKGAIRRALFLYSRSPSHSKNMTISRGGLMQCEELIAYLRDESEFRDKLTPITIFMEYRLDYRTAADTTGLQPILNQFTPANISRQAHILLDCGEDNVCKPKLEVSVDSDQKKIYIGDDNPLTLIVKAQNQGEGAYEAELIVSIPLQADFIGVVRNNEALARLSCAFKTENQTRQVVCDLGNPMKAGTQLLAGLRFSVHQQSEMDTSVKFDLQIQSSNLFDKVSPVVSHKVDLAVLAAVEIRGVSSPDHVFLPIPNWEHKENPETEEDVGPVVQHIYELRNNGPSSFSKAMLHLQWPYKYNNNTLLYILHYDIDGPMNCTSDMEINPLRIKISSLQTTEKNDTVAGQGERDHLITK
T2 sequence (P06756 891-1048 partner limits assumed): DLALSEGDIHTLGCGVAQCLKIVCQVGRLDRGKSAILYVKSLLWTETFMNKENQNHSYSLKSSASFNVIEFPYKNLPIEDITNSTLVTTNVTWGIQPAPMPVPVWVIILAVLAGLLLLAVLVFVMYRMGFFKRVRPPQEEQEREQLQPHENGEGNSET
T2 sequence (P05106 27-788): as the sequence (P05106 27-788) above

[5] = biological target: T2, vitronectrin receptor; conditions: background art; compared with same peptide before cyclization; cited from earlier work
[6] = biological target: fibronectin receptor (Homo sapiens, UniProt P05556+P08648); conditions: background art; cited from earlier work
fibronectin receptor, sequence (P08648 42-894 limits assumed): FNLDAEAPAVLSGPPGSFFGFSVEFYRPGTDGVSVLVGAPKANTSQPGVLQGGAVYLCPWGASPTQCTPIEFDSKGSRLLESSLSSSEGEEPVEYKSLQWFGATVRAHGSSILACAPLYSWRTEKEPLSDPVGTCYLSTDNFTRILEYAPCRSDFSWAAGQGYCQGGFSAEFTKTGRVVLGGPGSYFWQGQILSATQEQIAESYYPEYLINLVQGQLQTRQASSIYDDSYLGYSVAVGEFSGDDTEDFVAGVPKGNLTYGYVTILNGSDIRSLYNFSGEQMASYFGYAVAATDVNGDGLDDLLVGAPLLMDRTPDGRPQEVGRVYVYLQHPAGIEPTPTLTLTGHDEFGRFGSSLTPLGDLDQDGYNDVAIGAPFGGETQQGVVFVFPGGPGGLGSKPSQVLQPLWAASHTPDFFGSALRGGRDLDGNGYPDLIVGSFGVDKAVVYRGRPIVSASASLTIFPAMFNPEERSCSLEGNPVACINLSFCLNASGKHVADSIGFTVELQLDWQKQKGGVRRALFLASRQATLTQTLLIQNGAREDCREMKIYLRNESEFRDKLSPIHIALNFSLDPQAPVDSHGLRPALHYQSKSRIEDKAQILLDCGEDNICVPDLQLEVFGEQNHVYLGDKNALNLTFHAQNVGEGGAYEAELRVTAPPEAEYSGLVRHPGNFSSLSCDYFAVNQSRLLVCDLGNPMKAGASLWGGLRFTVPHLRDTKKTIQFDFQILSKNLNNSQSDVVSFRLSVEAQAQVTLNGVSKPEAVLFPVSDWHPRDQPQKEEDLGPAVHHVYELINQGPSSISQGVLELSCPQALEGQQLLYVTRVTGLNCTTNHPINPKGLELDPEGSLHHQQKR
fibronectin receptor, sequence (P08648 895-1049 partner limits assumed): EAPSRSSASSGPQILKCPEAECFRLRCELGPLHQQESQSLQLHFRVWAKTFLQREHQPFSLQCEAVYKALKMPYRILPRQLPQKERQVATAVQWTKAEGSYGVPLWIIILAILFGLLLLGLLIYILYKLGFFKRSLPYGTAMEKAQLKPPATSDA
fibronectin receptor, sequence (P05556 21-798): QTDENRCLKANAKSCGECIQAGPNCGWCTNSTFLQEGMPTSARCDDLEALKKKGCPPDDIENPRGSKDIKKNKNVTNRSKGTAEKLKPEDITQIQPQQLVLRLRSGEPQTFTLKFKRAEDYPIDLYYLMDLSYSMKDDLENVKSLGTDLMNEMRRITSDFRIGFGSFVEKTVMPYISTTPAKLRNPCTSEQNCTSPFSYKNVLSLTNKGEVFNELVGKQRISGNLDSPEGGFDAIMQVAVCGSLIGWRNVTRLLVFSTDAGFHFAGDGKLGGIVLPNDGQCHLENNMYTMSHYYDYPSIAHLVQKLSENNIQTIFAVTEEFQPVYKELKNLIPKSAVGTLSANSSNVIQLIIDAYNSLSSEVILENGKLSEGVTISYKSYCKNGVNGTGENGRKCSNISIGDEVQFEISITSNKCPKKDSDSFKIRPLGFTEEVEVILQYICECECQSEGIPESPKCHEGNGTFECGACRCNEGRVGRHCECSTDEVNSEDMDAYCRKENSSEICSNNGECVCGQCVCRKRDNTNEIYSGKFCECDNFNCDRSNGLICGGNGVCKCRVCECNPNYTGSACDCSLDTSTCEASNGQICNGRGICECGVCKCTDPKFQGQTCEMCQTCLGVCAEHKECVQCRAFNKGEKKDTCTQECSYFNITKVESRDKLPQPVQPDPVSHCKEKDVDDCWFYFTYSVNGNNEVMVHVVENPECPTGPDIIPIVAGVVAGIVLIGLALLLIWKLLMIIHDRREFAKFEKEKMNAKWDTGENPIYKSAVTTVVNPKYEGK

Row | Compound | specificity: inhibition of fibrinogen/GP IIb-IIIa binding compared with vitronectrin/vitronectrin receptor binding [2] | effect on M21 cell adhesion/attachment to vitronectrin, in words [3] | also measured
1 | C[C@H](NC(=O)[C@@H]1CSSC[C@H](NC(=O)CN)C(=O)NCC(=O)N[C@@H](CCCCN)C(=O)NCC(=O)N[C@@H](CC(=O)O)C(=O)N[C@@H](Cc2c[nH]c3ccccc23)C(=O)N2CCC[C@H]2C(=O)N1)C(N)=O [#3] |  |  | effect on cyclic flow reductions (CFRs) in LAD coronary artery ([1]; 10 mg into a peripheral vein, 20 kg open chest dog, FIG. 36): partial ablation of the CFRs; effect on cyclic flow reductions (CFRs) in LAD coronary artery ([1]; second infusion of 40 mg into a peripheral vein, FIG. 37): complete ablation of the CFRs
2 | C[C@H](NC(=O)[C@@H]1CSSC[C@H](NC(=O)CN)C(=O)N[C@@H](CCCCN)C(=O)NCC(=O)N[C@@H](CC(=O)O)C(=O)N[C@@H](Cc2c[nH]c3ccccc23)C(=O)N2CCC[C@H]2C(=O)N1)C(N)=O [#4] (H-GCKGDWPCA-NH2; disulfide 2-8) | highest differential |  | 
3 | NCCCC[C@@H]1NC(=O)CNC(=O)[C@@H](N)CSSC[C@@H](C(N)=O)NC(=O)[C@@H]2CCCN2C(=O)[C@H](Cc2c[nH]c3ccccc23)NC(=O)[C@H](CC(=O)O)NC(=O)CNC1=O [#5] (H-CGKGDWPC-NH2; disulfide 1-8) | quite specific |  | 
4 | C[C@H](NC(=O)[C@@H]1CSSC[C@H](NC(=O)CN)C(=O)N[C@@H](CCCCN)C(=O)NCC(=O)N[C@@H](CC(=O)O)C(=O)N[C@@H](Cc2c[nH]c3ccccc23)C(=O)N1)C(N)=O [#7] (H-GCKGDWCA-NH2; disulfide 2-7) | quite specific |  | 
5 | C[C@H](NC(=O)[C@@H]1CSSC[C@H](NC(=O)CN)C(=O)NCC(=O)N[C@@H](CCCCN)C(=O)NCC(=O)N[C@@H](CC(=O)O)C(=O)N[C@@H](Cc2c[nH]c3ccccc23)C(=O)N2CCC[C@H]2C(=O)N1)C(N)=O [Analog #3, G-C-G-K-G-D-W-P-C-A-NH2] |  | ineffective up to 60 uM | 
6 | N=C(N)NCCC[C@H](N)C(=O)NCC(=O)N[C@@H](CC(=O)O)C(=O)N[C@@H](CO)C(=O)O [RGDS, reference compound] |  | potent inhibitors of cell attachment | 
7 | C[C@H](NC(=O)[C@@H]1CSSC[C@H](NC(=O)CN)C(=O)NCC(=O)N[C@@H](CCCNC(=N)N)C(=O)NCC(=O)N[C@@H](CC(=O)O)C(=O)N[C@@H](Cc2c[nH]c3ccccc23)C(=O)N2CCC[C@H]2C(=O)N1)C(N)=O [reference compound] (H-GCGRGDWPCA-NH2; disulfide 2-9) |  | potent inhibitors of cell attachment | 
8 | ECADGLCCDQCRFLKKGTVCRVAKGDWNDDTCTGQSC- D-C-P-R-N-G-L-Y-G (ECADGLCCDQCRFLKKGTVCRVAKGDWNDDTCTGQSCDCPRNGLYG) [Analog #1] |  | neither barbourin nor Peptide 1 (truncated barbourin) had a significant effect | 
9 | EEPCATGPCCRRCKFKRAGKVCRVAKGDWNNDYCTGK- S-C-D-C-P-R-N-P-W-N-G (EEPCATGPCCRRCKFKRAGKVCRVAKGDWNNDYCTGKSCDCPRNPWNG) [Analog #2] |  |  | inhibition of vitronectrin binding to vitronectrin receptor, in words [4]: inability to inhibit the binding of vitronectrin to the vitronectrin receptor
10 | Gly-Pen-Gly-Arg-Gly-Asp-Ser-Pro-Cys-Ala (GRGDSPCA; N-terminal Gly-Pen; Pen-Cys disulfide cyclisation; printed: Gly-Arg-Gly-Asp-Ser-Pro-Cys-Ala) [cyclic peptide, disulfide bridge between Pen and Cys (Pierschbacher)] |  |  | inhibition of vitronectrin binding, in words [5]: able to inhibit vitronectrin binding more strongly than the same peptide before cyclization; inhibition of fibronectin binding, in words [6]: ineffective in inhibiting fibronectin binding
